Where two headings read alike, the source gives them in different places.
Legend:
TNKS2 ARC4 [1] = target: T1, TNKS2 ARC4 (Homo sapiens, UniProt Q9H2K2); parameters: DSF thermal shift of TNKS2 ARC4, stabilization over DMSO control; details: binder
T1 construct: ankyrin repeat cluster 4 domain; FRET: 6xHis-mCerulean (CFP) fusion; DSF, NMR, crystal: MBP and His tag cleaved by TEV, residues 487-649 printed for crystal; E. coli BL21(DE3)
T1 sequence (Q9H2K2 487-649): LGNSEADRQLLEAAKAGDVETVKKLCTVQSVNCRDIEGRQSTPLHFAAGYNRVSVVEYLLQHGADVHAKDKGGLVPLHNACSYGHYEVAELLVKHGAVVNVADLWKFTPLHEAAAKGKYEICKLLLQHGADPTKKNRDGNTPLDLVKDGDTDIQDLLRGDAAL
From the text: Given the notable stabilization of the pyrrolone-based compounds from the Commercials Diversity collection, we decided to focus on their common scaffold for compound optimization. Pyrrolone is indeed a versatile moiety that is largely employed for the design of compounds with a variety of biological effects.[55] The nine primary hits were acquired from commercial suppliers, they underwent quality control, additional DSF validation and determination of potency through FRET-based IC50 measurements (Table 1). All the tested compounds include a benzodioxane moiety (R[1]), a [compound left out] group with substitutions in the para position (R[2]), and an R[3] group with an aliphatic character and a tertiary amine. […] In addition, all molecules, except for 7, have IC50 values below 100 µM. Among the nine molecules, 1 performed the best in terms of stabilization of TNKS2 ARC4 and potency. […] In the same position, the presence of a hydrophobic methyl group (3, 4), other halogen substituents (5) and alkoxy groups (6–9) is also tolerated, even if not optimal. […] A SAR investigation was conducted with purchased and synthesized analogues of 1 through FRET-based potency measurements and DSF assay with TNKS2 ARC4 (Table 2, Table S2). All the compounds commercially acquired underwent quality control. […] Changes to the length of the aliphatic chain at R[3] greatly impacts both potency and protein stabilization. […] The diethylamino-based substituent at R[3] […] Compounds 25 and 26 further indicate that the presence of tertiary amine at R[3] is not necessary to achieve binding. […] 5 Figure S2. DSF assay results for validation of primary hits identified in the EU-OPENSCREEN Commercials Diversity Library. (A) and (B) show DSF assay validation measurements of TNKS2 ARC4 with primary hits from the Commercial Diversity Library. Compounds are tested at 100 μM. They are named after their EU-OPENSCREEN identity codes and the identities are available for consultation on ECBD. 1,2 (A) and (B) show results from two independent experiments. For each experiment, each compound was tested with a single measurement, while controls (TNKS2 ARC4 with 100 μM optimized peptide, TNKS2 ARC4 with 100 μM DMSO) are studied in at least four replicates and errors are shown. Moreover, stabilization over the control (TNKS2 ARC4 with DMSO) is indicated (ΔTm °C). […] It was not possible to measure the melting curve of TNKS2 ARC4 in presence of EOS21552, EOS54043, EOS54043.

TNKS2 ARC4 [2] = target: T1, TNKS2 ARC4; experiment: FRET displacement of YFP-REAGDGEE peptide from CFP-ARC; format: binding

ΔTm ± SD (°C) (TNKS2 ARC4 [1]) | IC50 (TNKS2 ARC4 [2]) [µM] | IC50 (TNKS2 ARC4 [2]; pH 7, 100 nM CFP-ARC, 200 nM YFP-peptide, TBM pocket) [µM] | Structure (SMILES)
1.40 ± 0.18 | 81 | – | CCCCOc1ccc(C2C(C(=O)c3ccc4c(c3)OCCO4)=C(O)C(=O)N2CCCN2CCOCC2)cc1 (stereo not drawn) [compound 9, 9]
0.08 ± 0.40 | – | – | CCN(CC)CCCN1C(=O)C(O)=C(C(=O)c2ccc(OC)c(OC)c2)C1c1cccc(O)c1 (stereo not drawn) [S11]
1.65 ± 0.24 | 69 | – | CCCCOc1ccc(C2C(C(=O)c3ccc4c(c3)OCCO4)=C(O)C(=O)N2CCCN(C)C)cc1 (stereo not drawn) [compound 8, 8]
0.07 ± 0.07 | 552 | – | CCN(CC)CCCN1C(=O)C(O)=C(C(=O)c2ccc(OCc3ccc(C)cc3)cc2)C1c1ccc(O)cc1 (stereo not drawn) [compound 11, 11]
3.43 ± 0.66 | – | – | CCN(CC)CCCN1C(=O)C(O)=C(C(=O)c2ccc3c(c2)OCCO3)C1c1ccc(C)cc1 (stereo not drawn) [compound 20]
-0.28 ± 0.35 | – | – | CCN(CC)CCCN1C(=O)C(O)=C(C(=O)c2ccc(OC)c(OC)c2)C1c1ccccc1 (stereo not drawn) [S10]
– | 325 | – | O=C(C1=C(O)C(=O)N(Cc2ccncc2)C1c1ccccc1)c1ccc2c(c1)OCCO2 (stereo not drawn) [compound 22, 22]
– | 56 | – | CCN(CC)CCCN1C(=O)C(O)=C(C(=O)c2ccc3c(c2)OCCO3)C1c1ccncc1 (stereo not drawn) [compound 24, 24]
1.80 ± 0.26 | – | – | O=C(C1=C(O)C(=O)N(CCc2ccccc2)C1c1ccc(O)cc1)c1ccc2c(c1)OCCO2 (stereo not drawn) [compound 25]
0.78 ± 0.43 | 368 | – | COCCCN1C(=O)C(O)=C(C(=O)c2ccc3c(c2)OCCO3)C1c1cccc(O)c1 (stereo not drawn) [compound 15, 15]
0.89 ± 0.33 | – | – | O=C(C1=C(O)C(=O)N(CCN2CCOCC2)C1c1ccccc1)c1ccc2c(c1)OCCO2 (stereo not drawn) [compound 23]
1.42 ± 0.16 | 117 | – | CCOc1ccc(C2C(C(=O)c3ccc4c(c3)OCCO4)=C(O)C(=O)N2CCCN2CCOCC2)cc1 (stereo not drawn) [compound 7, 7]
2.67 ± 0.46 | 31 | – | CCN(CC)CCCN1C(=O)C(O)=C(C(=O)c2ccc3c(c2)CC(C)O3)C1c1ccc(O)cc1 (stereo not drawn) [compound 10, 10]
2.25 ± 0.48 | – | – | O=C(C1=C(O)C(=O)N(CCCN2CCOCC2)C1c1cccc(O)c1)c1ccc2c(c1)OCCO2 (stereo not drawn) [compound 18]
– | 31 | – | CN(C)CCCN1C(=O)C(O)=C(C(=O)c2ccc3c(c2)OCCO3)C1c1cccc(O)c1 (stereo not drawn) [compound 16, 16]
– | 78 | – | CCN(CC)CCCN1C(=O)C(O)=C(C(=O)c2ccc3c(c2)OCCO3)C1c1ccc(C)cc1 (stereo not drawn) [compound 20, 20]
4.73 ± 0.29 | – | – | CCN(CC)CCCN1C(=O)C(O)=C(C(=O)c2ccc3c(c2)OCCO3)C1c1ccccc1 (stereo not drawn) [compound 21]
2.34 ± 0.30 | 51 | – | Cc1ccc(C2C(C(=O)c3ccc4c(c3)OCCO4)=C(O)C(=O)N2CCCN(C)C)cc1 (stereo not drawn) [compound 3, 3]
4.03 ± 0.39 | 11 | – | CCN(CC)CCCN1C(=O)C(O)=C(C(=O)c2ccc3c(c2)OCCO3)C1c1cccc(OC)c1 (stereo not drawn) [compound 12, 12]
– | – | 411 | O=C(C1=C(O)C(=O)N(CCN2CCOCC2)C1c1ccccc1)c1ccc2c(c1)OCCO2 (stereo not drawn) [compound 23, 23]
2.78 ± 0.18 | 17 | – | CCN(CC)CCCN1C(=O)C(O)=C(C(=O)c2ccc3c(c2)OCCO3)C1c1ccc(N)cc1 (stereo not drawn) [S9]

ΔTm ± SD (°C) (TNKS2 ARC4 [1]) | IC50 (TNKS2 ARC4 [2]) [µM] | IC50 (TNKS2 ARC4 [2]; pH 7, 100 nM CFP-ARC, 200 nM YFP-peptide, TBM pocket) [µM] | Structure (SMILES)
1.49 ± 0.16 | 70 | – | CN(C)CCCN1C(=O)C(O)=C(C(=O)c2ccc3c(c2)OCCO3)C1c1ccc(Br)cc1 (stereo not drawn) [compound 5, 5]
0.98 ± 0.32 | – | – | CN(C)CCN1C(=O)C(O)=C(C(=O)c2ccc3c(c2)OCCO3)C1c1cccc(O)c1 (stereo not drawn) [compound 17]
0.76 ± 0.33 | – | – | O=C(C1=C(O)C(=O)N(Cc2ccccc2)C1c1ccc(O)cc1)c1ccc2c(c1)OCCO2 (stereo not drawn) [compound 26]
– | 85 | – | O=C(C1=C(O)C(=O)N(CCCN2CCOCC2)C1c1cccc(O)c1)c1ccc2c(c1)OCCO2 (stereo not drawn) [compound 18, 18]
2.38 ± 0.52 | 32 | – | CCN(CC)CCCN1C(=O)C(O)=C(C(=O)c2ccc3c(c2)OCCO3)C1c1ccc(F)cc1 (stereo not drawn) [compound 2, 2]
0.69 ± 0.30 | 250 | – | COc1cccc(C2C(C(=O)c3ccc4c(c3)OCCO4)=C(O)C(=O)N2CCCN2CCNCC2)c1 (stereo not drawn) [S1]
0.48 ± 0.27 | – | – | O=C(C1=C(O)C(=O)N(Cc2ccncc2)C1c1ccccc1)c1ccc2c(c1)OCCO2 (stereo not drawn) [compound 22]
2.96 ± 0.36 | – | – | CN(C)CCCN1C(=O)C(O)=C(C(=O)c2ccc3c(c2)OCCO3)C1c1cccc(O)c1 (stereo not drawn) [compound 16]
4.82 ± 0.49 | 24 | – | CCN(CC)CCCN1C(=O)C(O)=C(C(=O)c2ccc3c(c2)OCCO3)C1c1cccc(O)c1 (stereo not drawn) [compound 13, 13]
– | 56 | – | O=C(C1=C(O)C(=O)N(CCc2ccccc2)C1c1ccc(O)cc1)c1ccc2c(c1)OCCO2 (stereo not drawn) [compound 25, 25]
0.04 ± 0.03 | > 1000 | – | CCN(CC)CCCN1C(=O)C(O)=C(C(=O)c2ccc(OC)c(OC)c2)C1c1ccc(O)cc1 (stereo not drawn) [S7]
– | 30 | – | O=C(C1=C(O)C(=O)N(Cc2ccccc2)C1c1ccc(O)cc1)c1ccc2c(c1)OCCO2 (stereo not drawn) [compound 26, 26]
1.40 ± 0.36 | 139 | – | CCN(CC)CCN1C(=O)C(O)=C(C(=O)c2ccc3c(c2)OCCO3)C1c1cccc(O)c1 (stereo not drawn) [compound 14, 14]
1.10 ± 0.12 | 142 | – | COc1cccc(C2C(C(=O)c3ccc4c(c3)OCCO4)=C(O)C(=O)N2CCCNC(=N)N)c1 (stereo not drawn) [S4]
4.14 ± 0.12 | – | – | CCN(CC)CCCN1C(=O)C(O)=C(C(=O)c2ccc3c(c2)OCCO3)C1c1ccc(N(C)C)cc1 (stereo not drawn) [compound 19]
– | 274 | – | CN(C)CCN1C(=O)C(O)=C(C(=O)c2ccc3c(c2)OCCO3)C1c1cccc(O)c1 (stereo not drawn) [compound 17, 17]
– | 10 | – | CCN(CC)CCCN1C(=O)C(O)=C(C(=O)c2ccc3c(c2)OCCO3)C1c1ccc(N(C)C)cc1 (stereo not drawn) [compound 19, 19]
2.75 ± 0.44 | – | – | CCN(CC)CCCN1C(=O)C(O)=C(C(=O)c2ccc3c(c2)OCCO3)C1c1ccncc1 (stereo not drawn) [compound 24]
1.97 ± 0.35 | 74 | – | CCN(CC)CCCCN1C(=O)C(O)=C(C(=O)c2ccc3c(c2)OCCO3)C1c1ccc(O)cc1 (stereo not drawn) [S12]
– | 36 | – | CCN(CC)CCCN1C(=O)C(O)=C(C(=O)c2ccc3c(c2)OCCO3)C1c1ccccc1 (stereo not drawn) [compound 21, 21]
-0.06 ± 0.04 | > 1000 | – | CCN(CC)CCCN1C(=O)C(O)=C(C(=O)c2ccc3ccccc3c2)C1c1ccc(O)cc1 (stereo not drawn) [S6]

Reference: paper doi:10.1101/2025.03.31.646301v1, “Discovery of Tankyrase scaffolding inhibitor specifically targeting the ARC4 peptide binding domain” (biorxiv, 2025)
